Where no end group is shown, it is not given here.
Tests used:
HCV-related diseases = conditions: in vivo; cited from earlier work
[1] = system: Woodchuck Hepatitis Virus; conditions: infected woodchuck; cited from earlier work
[2] = system: nonsmall cell lung cancer; conditions: both THNα1 treatment groups; cited from earlier work
hepatitis B virus (HBV) = conditions: treated for a year, cited from earlier work
Hepatitis C = experiment: Treatment of Hepatitis C patients with Thymosin α-1 during α-IFN administration (Example 6); type: in vivo, human; conditions: after 6 months
Protocol: The course of the disease and its response to drug treatments may be followed by clinical examination and laboratory findings.
Efficacy of Thymosin α-1 for treatment of Hepatitis C was shown in two Hepatitis C patients who were previous non-responders to α-interferon. These two patients were treated with Thymosin α-1 by subcutaneous injection of 1 mg thereof twice weekly, during administration three times weekly of 2 million units of α-IFN. […] In three additional Hepatitis C patients treated as above, serum ALT levels were reduced 50% after 6 months.

[3] = system: response to influenza vaccine; conditions: cited from earlier work

Row | Compound | effectiveness in halting or slowing progression of HCV-related diseases (HCV-related diseases) | clinical parameters [1] | viral DNA replication [1] | relapse-free survival and overall survival versus placebo group [2] | serum ALT (hepatitis B virus (HBV); THNα1 5 patients, TF-5 2 patients) | patients initially positive for HBSAg who cleared this antigen (hepatitis B virus (HBV); THNα1 and TF-5 patients pooled) | patients with reduced levels of serum HBV DNA (hepatitis B virus (HBV); THNα1 and TF-5 patients pooled) | reduction of serum ALT (threshold not achieved) (Hepatitis C; six additional Hepatitis C patients, same regimen with α-IFN) | response to treatment (serum ALT levels reduced to normal) (Hepatitis C; six other Hepatitis C patients, same regimen with α-IFN) | serum ALT levels reduced (Hepatitis C; three additional Hepatitis C patients, same regimen with α-IFN) | reduction of serum alanine transaminase (ALT) (Hepatitis C; two patients, previous non-responders to α-interferon, 1 mg s.c. twice weekly during 2 million units α-IFN three times weekly) | antibody to influenza ([3]; s.c. twice weekly from vaccination, six weeks post-vaccine) | toxicity in drug recipients ([3]; s.c. twice weekly)
1 | Nc1nc2c(ncn2COCCO)c(=O)[nH]1 [acyclovir] | ineffective |  |  |  |  |  |  |  |  |  |  |  | 
2 | Thymosin α-1 (SDAAVDTSSEITTKDLKEKKEVVEEAEN; ends and bridges not checked; UniProt P06454 2-29, looked up) |  | no improvement | suppressed viral DNA replication | greater | marked decrease | 5 of 6 | 6 of the 7 | < 50% | complete response | 50% | 50% | higher levels of antibody to influenza than controls | No clinical or biochemical toxicity

From patent US6001799A, “Method of treating hepatitis C in non-responders to interferon treatment” (SciClone Pharmaceuticals, Inc., priority 1993, dated 1999)
